Here are results for 34 molecules from patent US20060148649A1, “Substituted n-aryl nitrogen heterocycles” (priority 2003, published 2006).

As usually defined, the melting point is the temperature of the solid-liquid transition. What is called chromatographic logP is lipophilicity estimated from chromatographic retention. High values mean higher lipophilicity, low ones lower lipophilicity.

SMILES strings stand for the structures.

The nature of data set [1]: log P determination by HPLC (EEC directive 79/831 Annex V.A8, reverse-phase C 18). As to conditions: for chromatographic logP: reverse-phase C18 HPLC column, pH 2.3; for logP: HPLC, reverse-phase C 18, 43° C., acidic range: 0.1% aqueous phosphoric acid/acetonitrile gradient (marked a)).
The test system of data set [2] is weeds. The data set is described as follows: Pre-emergence test (herbicidal activity). As to conditions: soil sprayed 24 hours after sowing, rated after three weeks. It is filed as in vivo.
Data set [3] has as its system crop plants, such as wheat. As to the kind of experiment: Post-emergence test (crop plant tolerance). The data set is classed as in vivo. The following applies: some crop plants, e.g. wheat, rated after three weeks.
In data set [4] the test system is weeds. As to the kind of experiment: Post-emergence test (herbicidal activity). As to conditions: test plants of 5-15 cm sprayed, rated after three weeks. It is filed as in vivo.
Data set [5] concerns crop plants, such as corn and sugar beet. The data set is described as follows: Pre-emergence test (crop plant tolerance). The data set is classed as in vivo. The following applies: some crop plants, e.g. corn and sugar beet, rated after three weeks.

As for `CCOC(=O)C1CCN(c2cc(-n3c(=O)cc(C(F)(F)F)[nH]c3=O)c(F)cc2C#N)CC1`, the melting point turned out to be 124.5 °C.

In the case of `CCOC(=O)C1CCN(c2cc(-n3c(=O)cc(C(F)(F)F)n(C)c3=O)c(F)cc2C#N)CC1` [Example 2, 3-[4-cyano-5-(4-ethoxycarbonylpiperidin-1-yl)-2-fluorophenyl]-1-methyl-6-trifluoromethyl-1H-pyrimidine-2,4-dione], the chromatographic logP in data set [1] was found to be 3.23. Moreover, the “activity against weeds (degree of damage vs untreated control)” value in the data set with weeds [2] and with weeds [4] was “very strong activity” in each case. For the same molecule, the “tolerance by crop plants” value in data set [3] and in data set [5] was “tolerated well” in each case.

In data set [1], `Cn1c(C(F)(F)F)cc(=O)n(-c2cc(N3C(=O)CN(C4CC4)C3=O)c(C#N)cc2F)c1=O` [Example 3, 3-[4-cyano-2-fluoro-5-(1-cyclopropyl-2,4-dioxoimidazolidin-3-yl)phenyl]-1-methyl-6-trifluoromethyl-1H-pyrimidine-2,4-dione] had a chromatographic logP of 2.25. In addition, the “activity against weeds (degree of damage vs untreated control)” value in the data set with weeds [2] and with weeds [4] was “very strong activity” in each case. Also, the “tolerance by crop plants” value in data set [3] and in data set [5] was “tolerated well” in each case.

For the molecule `Cc1ccc(C)n1-c1cc(-n2c(=O)cc(C(F)(F)F)n(C)c2=O)c(F)cc1C#N` [Example 4], the “tolerance by crop plants” value in data set [3] and in data set [5] was “tolerated well” throughout.

For the molecule `Cn1c(C(F)(F)F)cc(=O)n(-c2cc(-n3cccc3)c(C#N)cc2F)c1=O` [Example 5], the “tolerance by crop plants” value in data set [3] and in data set [5] was “tolerated well” throughout.

On to `Cn1c(C(F)(F)F)cc(=O)n(-c2cc(-n3ccc(C=O)c3)c(C#N)cc2F)c1=O` [Example 6], for which the logP result in data set [1] is “m.p.: 174 °C logP = 2.25^a)”. Moreover, the “tolerance by crop plants” value in data set [3] and in data set [5] was “tolerated well” in each case.

For the molecule `CCOC(=O)CCN1CC(=O)N(c2cc(-n3c(=O)cc(C(F)(F)F)n(C)c3=O)c(F)cc2C#N)C1=O` [Example 8], the logP entry in data set [1] was “logP = 2.48^a)”.

With `Cn1c(C(F)(F)F)cc(=O)n(-c2cc(N3C(=O)C4CCCCN4C3=O)c(C#N)cc2F)c1=O` (stereo not drawn) [Example 9], the logP result in data set [1] is reported as “logP = 2.42^a)”. The “tolerance by crop plants” value in data set [3] and in data set [5] was “tolerated well” throughout.

As to `CC1OC(=O)N(c2cc(-n3c(=O)cc(C(F)(F)F)n(C)c3=O)c(F)cc2C#N)C1=O` (stereo not drawn) [Example 10], in data set [1], the logP result was “logP = 2.49^a)”. Moreover, the “tolerance by crop plants” value in data set [3] is given as “tolerated well”.

As for `Cn1c(C(F)(F)F)cc(=O)n(-c2cc(N3C(=O)CSC3=O)c(C#N)cc2F)c1=O` [Example 11], the logP result in data set [1] is on record as “logP = 2.36^a)”. In data set [3], the “tolerance by crop plants” value is given as “tolerated well”. Further, the “activity against weeds (degree of damage vs untreated control)” value with weeds [4] is on record as “very strong activity”.

For the molecule `Cn1c(C(F)(F)F)cc(=O)n(-c2cc(N3C(=O)COC3=O)c(C#N)cc2F)c1=O` [Example 12], the “tolerance by crop plants” value in data set [3] is “tolerated well”.

As for `CCOC(=O)C1CCN(c2cc(-n3c(=O)cc(C(F)(F)F)n(N)c3=O)c(F)cc2C#N)CC1` [Example 16], in data set [1], the logP entry is “logP = 2.89^a)”. The “activity against weeds (degree of damage vs untreated control)” value with weeds [2] and in the data set on weeds [4] was “very strong activity” in each case. For the same molecule, the “tolerance by crop plants” value in data set [3] and in data set [5] was “tolerated well” each time.

On to `N#Cc1cc(F)c(-n2c(=O)cc(C(F)(F)F)[nH]c2=O)cc1N1CCC(O)CC1` [Example 18], for which the logP result in data set [1] is recorded as “logP = 1.62^a)”.

For `Cn1c(C(F)(F)F)cc(=O)n(-c2cc(N3CCC(O)CC3)c(C#N)cc2F)c1=O` [Example 20], the logP result in data set [1] is given as “logP = 3.97^a)”. Besides, the “activity against weeds (degree of damage vs untreated control)” value with weeds [2] and in the data set with weeds [4] was “very strong activity” in each case. Moreover, the “tolerance by crop plants” value in data set [3] and in data set [5] was “tolerated well” throughout.

In the case of `CCOC(=O)C1CCCN(c2cc(-n3c(=O)cc(C(F)(F)F)[nH]c3=O)c(F)cc2C#N)C1` (stereo not drawn) [Example 24], in data set [1], the logP result is reported as “logP = 3.31^a)”. In addition, the “tolerance by crop plants” value in data set [3] and in data set [5] was “tolerated well” throughout.

Regarding `COC(=O)C1CCN(c2cc(-n3c(=O)cc(C(F)(F)F)n(C)c3=O)c(F)cc2C#N)CC1` [Example 28], the logP entry in data set [1] is “logP = 2.88^a)”. Besides, the “activity against weeds (degree of damage vs untreated control)” value in the data set with weeds [2] and in the data set on weeds [4] was “very strong activity” throughout. Besides, the “tolerance by crop plants” value in data set [3] and in data set [5] was “tolerated well” each time.

Take `Cn1c(C(F)(F)F)cc(=O)n(-c2cc(N3CCC(O)C3)c(C#N)cc2F)c1=O` (stereo not drawn) [Example 31]: the logP result in data set [1] is “logP = 2.02^a)”. Further, the “activity against weeds (degree of damage vs untreated control)” value in the data set with weeds [2] and in the data set with weeds [4] was “very strong activity” throughout. Further, the “tolerance by crop plants” value in data set [3] and in data set [5] was “tolerated well” in each case.

For the molecule `Cn1c(C(F)(F)F)cc(=O)n(-c2cc(N3CCC4(CC3)OCCO4)c(C#N)cc2F)c1=O` [Example 34], the logP result in data set [1] is on record as “logP = 2.67^a)”.

On to `N#Cc1cc(F)c(-n2c(=O)cc(C(F)(F)F)n(N)c2=O)cc1N1CCC2(CC1)OCCO2` [Example 35], for which the logP result in data set [1] was “logP = 2.37^a)”.

Take `Cn1c(C(F)(F)F)cc(=O)n(-c2cc(N3CCC(C(F)(F)F)CC3)c(C#N)cc2F)c1=O` [Example 37]: the logP result in data set [1] was “logP = 3.52^a)”.

On to `N#Cc1cc(F)c(-n2c(=O)cc(C(F)(F)F)[nH]c2=O)cc1N1CCC(C#N)CC1` [Example 38], for which the logP entry in data set [1] was “logP = 2.08^a)”.

Take `Cn1c(C(F)(F)F)cc(=O)n(-c2cc(N3CCC4(CC3)OCCCO4)c(C#N)cc2F)c1=O` [Example 40]: the logP entry in data set [1] is reported as “logP = 2.69^a)”.

Turning to `N#Cc1cc(F)c(-n2c(=O)cc(C(F)(F)F)n(N)c2=O)cc1N1CCC2(CC1)OCCCO2` [Example 41], in data set [1], the logP entry is “logP = 2.40^a)”.

Take `N#Cc1cc(F)c(-n2c(=O)cc(C(F)(F)F)[nH]c2=O)cc1N1CCC(C(F)(F)F)CC1` [Example 42]: the logP result in data set [1] is “logP = 2.96^a)”.

`Cn1c(C(F)(F)F)nn(-c2cc(N3CCC4(CC3)OCCO4)c(C#N)cc2F)c1=O` [Example 50]: the logP result in data set [1] is on record as “logP = 2.81^a)”.

Consider `CCOC(=O)C1CCN(c2cc(N3C(=O)C4=C(CCCC4)C3=O)c(F)cc2C#N)CC1` [Example 59], for which, in data set [1], the logP result is recorded as “logP = 3.77^a)”.

Regarding `CCOC(=O)C1CCN(c2cc(N3C(=O)C(C)=C(C)C3=O)c(F)cc2C#N)CC1` [Example 64], in data set [1], the logP entry is reported as “logP = 3.37^a)”.

On to `CCOC(=O)C1CCCN(c2cc(-n3c(=O)cc(C(F)(F)F)n(C)c3=O)c(F)cc2Cl)C1` (stereo not drawn) [Example 68], for which the logP result in data set [1] is “logP = 3.87^a)”.

`CCOC(=O)C1CCCCN1c1cc(-n2c(=O)cc(C(F)(F)F)n(C)c2=O)c(F)cc1Cl` (stereo not drawn) [Example 69]: in data set [1], the logP result was “logP = 4.07^a)”.

Consider `CCOC(=O)C1CCCN(c2cc(-n3c(=O)cc(C(F)(F)F)n(C)c3=O)c(F)cc2Br)C1` (stereo not drawn) [Example 73], for which the logP result in data set [1] is “logP = 3.99^a)”.

`CCOC(=O)C1CCCCN1c1cc(-n2c(=O)cc(C(F)(F)F)n(C)c2=O)c(F)cc1Br` (stereo not drawn) [Example 74]: in data set [1], the logP entry was “logP = 4.18^a)”.

Consider `CCOC(=O)C1CCCN1c1cc(-n2c(=O)cc(C(F)(F)F)n(C)c2=O)c(F)cc1Br` (stereo not drawn) [Example 82], for which the logP result in data set [1] is reported as “logP = 3.61^a)”.

In the case of `CCOC(=O)C1CCCN1c1cc(-n2c(=O)cc(C(F)(F)F)n(C)c2=O)c(F)cc1Cl` (stereo not drawn) [Example 83], the logP entry in data set [1] is reported as “logP = 3.49^a)”.

Consider `CCOC(=O)C1CCCN1c1cc(-n2c(=O)cc(C(F)(F)F)n(C)c2=O)c(F)cc1C#N` (stereo not drawn) [Example 84], for which the logP result in data set [1] is recorded as “logP = 3.01^a)”.
